Results taken from publication PMC11181022, “The molecular architecture of Lactobacillus S-layer: Assembly and attachment to teichoic acids” (Proceedings of the National Academy of Sciences of the …, 2024).

Biological target: T1, SlpA_amy_III (SlpA_amy_D3) (Lactobacillus amylovorus, UniProt E4SK47)
T1 construct: gene LA2_00970; His-tagged, 15N-labelled, expressed in E. coli BL21 DE
T1 sequence (E4SK47 322-456): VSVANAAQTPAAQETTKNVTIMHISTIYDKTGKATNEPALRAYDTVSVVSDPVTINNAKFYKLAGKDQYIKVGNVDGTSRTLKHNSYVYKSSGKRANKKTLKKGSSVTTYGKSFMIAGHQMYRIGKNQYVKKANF
Assay: 1H-15N HSQC NMR titration, mean Kd of per-residue shift fits
Conditions: 20 mM ADA, 50 mM NaCl, pH 6.5, 25 C, two binding areas TAB1 and TAB2

Substance	Kd (200 uM protein)	Kd (300 uM protein)
GroP pentamer	500 µM	–
GroP trimer	–	3500 µM
